Test results reported in patent US20230248726A1, “PHARMACEUTICAL COMPOSITION AND APPLICATION THEREOF” (SHANGHAI RAISING PHARMACEUTICAL CO., LTD., priority 2020, published 2023).
Counter-ions that a name gives are not always drawn.

Test system: APP/PS1/Tau mice
Experiment: Morris water maze test
Type: in vivo
Settings: for Time in the target quadrant / Times of crossing over the platform / latent period: APP/PS1/Tau mice, intragastric daily for 8 weeks, testing Day 6, n = 10, BTMP 200 mg/kg, VB1 200 mg/kg, donepezil hydrochloride 1.5 mg/kg, ½BTMP 100 mg/kg; for spatial memory and learning ability of the AD mice (result in words): Morris water maze, compared with the model group
Source text: In water, rodents have a strong motivation to escape from the water environment, and can escape from the water environment in the fastest and most direct way. The process of learning to escape from the water environment reflects the learning ability of animals. Spatial positioning according to the surrounding environment and swimming to a safe place in the water (such as a platform) on purpose can reflect the spatial learning and memory ability of animals.
The test animals were male APP/PS1/Tau mice and C57BL/6 wild type mice. The mice were 8 months old, weighing […], and purchased from The Jackson laboratory.
App/PS1/Tau mice are APP/PS1/tau triple transgenic Alzheimer's disease (3×Tg-AD) model mice, whose AO deposition occurs several months earlier than the pathological change of the tau protein, and can more realistically simulate the clinical process and pathological changes of Alzheimer's disease.
Preparation of a 10 mg/ml vitamin B1 solution (dosage: 200 mg/kg): 500 mg of vitamin B1 was weighed, and 0.7% m/v CMC-Na was added to reach 50 ml, to obtain a 10 mg/ml solution.
Preparation of a 10 mg/ml BTMP suspension (dosage: 200 mg/kg): 500 mg of BTMP was weighed, and 0.7% m/v CMC-Na was added to reach 50 ml, to obtain a 10 mg/ml BTMP suspension.
Preparation of a 0.075 mg/ml donepezil hydrochloride suspension (dosage: 1.5 mg/kg): one donepezil hydrochloride tablet (containing 5 mg donepezil hydrochloride) was ground, and 0.7% m/v CMC-Na was added to reach 66.67 ml, to obtain a 0.075 mg/ml donepezil hydrochloride suspension.
(§1) Preparation of a 10 mg/ml BTMP suspension+0.075 mg/ml donepezil hydrochloride suspension (dosage: 200 mg/kg BTMP suspension+1.5 mg/kg donepezil hydrochloride suspension): a 20 mg/ml BTMP suspension and a 0.15 mg/ml donepezil hydrochloride suspension were respectively prepared, and equal volumes were evenly mixed before administration, to obtain a 10 mg/ml BTMP suspension+0.075 mg/ml donepezil hydrochloride suspension.
as §1, with “5” for “10”, “100” for “200”, “10” for “20”
The mice in the blank control group, the model group and the test groups were intragastrically administered according to the dosage/specification in 2.2. for 8 weeks, and the water maze training and testing were started in the last week of the administration. The water maze training and testing lasted for 6 days, with 5 days of training and 1 day of testing. In addition, during the water maze training and testing period (6 days in total), conditions such as the indoor lighting etc. were kept constant, and the room was kept quiet, so as to eliminate the interference of the environment and personnel.
(1) Pre-test preparation: an appropriate amount of water was placed in a water maze pool with water temperature being kept at 22±3° C., a platform was placed at a fixed position (the target quadrant) and 1 cm below the water surface, and titanium dioxide was added until water color was white, and the platform could not be seen clearly.
(2) Training period (Day 1 to Day 5): each mouse was placed on the platform for 15 s (to increase the mouse's sense of security on the platform) prior to the first quadrant training on each day, and then the mouse was placed in the quadrant where the platform located in the pool (head towards the wall), and a swimming time of 60 s was set. If it found the platform within 60 s and stayed for 5 s, it was considered as a success in finding the platform.
After the first quadrant training, the training in the remaining three quadrants was performed in turn, wherein it is not necessary to place the mice on the platform and hold for 15 s before training.

Compound	Time in the target quadrant	Times of crossing over the platform	latent period	spatial memory and learning ability of the AD mice (result in words)
C/C(=C(\CCOP(=O)(O)O)SC(=O)c1ccccc1)N(C=O)Cc1cnc(C)nc1N [BTMP, S-2-[[(2-methyl-4-amino-5-pyrimidinyl)methyl]formylamino]-5-phosphonooxy-2,3-pentenyl-3-mercaptobenzoate]	14.96 ± 1.50 s	2.10 ± 0.74	26.10 ± 1.85 s	significantly improved
Cc1ncc(C[n+]2csc(CCO)c2C)c(N)n1 [VB1, vitamin B1]	11.87 ± 1.17^*#& s	1.00 ± 0.67^*&	35.10 ± 4.09^*#& s	did not significantly improve
COc1cc2c(cc1OC)C(=O)C(CC1CCN(Cc3ccccc3)CC1)C2 (stereo not drawn) [Donepezil hydrochloride, donepezil hydrochloride]	14.44 ± 1.11 s	1.80 ± 0.79	27.80 ± 2.04 s	significantly improved
